Experiments:
Type in all cases: functional
[1] = system: Mus musculus; experiment: Anxiolytic activity in ip dosed male albino CF-1 mouse assessed as inhibition of nicotine-induced tonic extensor convulsions
[2] = system: Mus musculus; experiment: Anxiolytic activity in ip dosed male albino CF-1 mouse assessed as decrease in traction reflex
[3] = system: Mus musculus; experiment: Anxiolytic activity in ip dosed male albino CF-1 mouse assessed as decrease in dish reflex
[4] = system: Mus musculus; experiment: Anxiolytic activity in ip dosed male albino CF-1 mouse assessed as inhibition of nicotine-induced death
[5] = system: Mus musculus; experiment: Anxiolytic activity in ip dosed male albino CF-1 mouse assessed as inhibition of pentylenetetrazole-induced clonic convulsions; settings: CF-1, ip
[6] = system: Mus musculus; experiment: Anxiolytic activity in ip dosed male albino CF-1 mouse assessed as inhibition of strychnine-induced lethality; settings: CF-1, ip
[7] = system: Mus musculus; experiment: Potentiation of ethanol-induced anxiolytic activity in ip dosed male albino CF-1 mouse; settings: CF-1, ip
[8] = system: Mus musculus; experiment: Anxiolytic activity in ip dosed male albino CF-1 mouse assessed as inhibition of thiosemicarbazide -induced lethality; settings: CF-1, ip
[9] = system: Mus musculus; experiment: Anxiolytic activity in ip dosed male albino CF-1 mouse assessed as inhibition of electroshock-induced convulsions; settings: CF-1, ip
[10] = Mus musculus, CF-1, ip, read-out: ED50

## CCN(CC)CC(=O)Nc1ccc(Cl)cc1C(=O)c1ccccc1
[1]; [10]
  ED50: 23 mg/kg
[2]; [10]
  ED50: > 200 mg/kg
[3]; [10]
  ED50: 100 mg/kg
[4]; [10]
  ED50: 28 mg/kg
[5]
  ED50: 140 mg/kg

## Cc1nnc(CN(C)C)n1-c1ccc(Cl)cc1C(=O)c1ccccc1Cl
[1]; [10]
  ED50: 0.14 mg/kg
[6]
  ED50: 11 mg/kg
[7]
  ED50: 0.63 mg/kg
[2]; [10]
  ED50: 3.2 mg/kg
[3]; [10]
  ED50: 0.25 mg/kg
[8]
  ED50: 0.02 mg/kg
[9]
  ED50: 50 mg/kg
[4]; [10]
  ED50: 0.14 mg/kg
[5]
  ED50: 0.28 mg/kg

## CN(C)Cc1nnc(-c2ccncc2)n1-c1ccc(Cl)cc1C(=O)c1ccccc1Cl
[1]; [10]
  ED50: 11 mg/kg
[6]
  ED50: > 50 mg/kg
[2]; [10]
  ED50: > 100 mg/kg
[3]; [10]
  ED50: 20 mg/kg
[8]
  ED50: 4.4 mg/kg
[9]
  ED50: > 100 mg/kg
[4]; [10]
  ED50: 11 mg/kg

## Cc1nnc(CN(C)C)n1-c1ccccc1C(=O)c1ccccc1Cl
[1]; [10]
  ED50: 5 mg/kg
[6]
  ED50: > 50 mg/kg
[7]
  ED50: > 100 mg/kg
[2]; [10]
  ED50: > 100 mg/kg
[3]; [10]
  ED50: 22 mg/kg
[8]
  ED50: 3.6 mg/kg
[9]
  ED50: > 100 mg/kg
[4]; [10]
  ED50: 5 mg/kg
[5]
  ED50: 7 mg/kg

## Cc1nnc(CN(C)C)n1-c1ccc(Cl)cc1C(=O)c1ccccc1
[1]; [10]
  ED50: 0.5 mg/kg
[6]
  ED50: 5 mg/kg
[7]
  ED50: 1.1 mg/kg
[2]; [10]
  ED50: 5 mg/kg
[3]; [10]
  ED50: 2.2 mg/kg
[8]
  ED50: 0.3 mg/kg
[9]
  ED50: 45 mg/kg
[4]; [10]
  ED50: 0.5 mg/kg
[5]
  ED50: 1.1 mg/kg

## Cc1nnc(CN2CCCC2)n1-c1ccc(Cl)cc1C(=O)c1ccccc1
[1]; [10]
  ED50: 0.4 mg/kg
[6]
  ED50: 4 mg/kg
[7]
  ED50: 1.8 mg/kg
[2]; [10]
  ED50: 4 mg/kg
[3]; [10]
  ED50: 1.3 mg/kg
[8]
  ED50: 2 mg/kg
[9]
  ED50: 89 mg/kg
[4]; [10]
  ED50: 0.4 mg/kg
[5]
  ED50: 2 mg/kg

## Cc1nnc(CN2CCCC2)n1-c1ccc(Cl)cc1C(=O)c1ccccc1Cl
[1]; [10]
  ED50: 1.3 mg/kg
[6]
  ED50: 1 mg/kg
[7]
  ED50: 6 mg/kg
[2]; [10]
  ED50: 18 mg/kg
[3]; [10]
  ED50: 1 mg/kg
[8]
  ED50: 1.1 mg/kg
[9]
  ED50: > 100 mg/kg
[4]; [10]
  ED50: 1.8 mg/kg
[5]
  ED50: 4 mg/kg

## Cc1nnc(CN2CCCC2)n1-c1ccc(Cl)cc1Cc1ccccc1
[1]; [10]
  ED50: 36 mg/kg
[2]; [10]
  ED50: > 100 mg/kg
[3]; [10]
  ED50: 40 mg/kg
[4]; [10]
  ED50: 36 mg/kg
[5]
  ED50: > 100 mg/kg

## Cc1nnc(CN2CCOCC2)n1-c1ccc(Cl)cc1C(=O)c1ccccc1
[1]; [10]
  ED50: 0.45 mg/kg
[6]
  ED50: 6.3 mg/kg
[7]
  ED50: 4.4 mg/kg
[2]; [10]
  ED50: 5 mg/kg
[3]; [10]
  ED50: 1.8 mg/kg
[8]
  ED50: 0.8 mg/kg
[9]
  ED50: > 50 mg/kg
[4]; [10]
  ED50: 0.5 mg/kg
[5]
  ED50: 1.8 mg/kg

## CNCc1nnc(C)n1-c1ccc(Cl)cc1C(=O)c1ccccc1
[1]; [10]
  ED50: 0.1 mg/kg
[6]
  ED50: 3.2 mg/kg
[7]
  ED50: 2 mg/kg
[2]; [10]
  ED50: 2.5 mg/kg
[3]; [10]
  ED50: 0.8 mg/kg
[8]
  ED50: 0.3 mg/kg
[9]
  ED50: 63 mg/kg
[4]; [10]
  ED50: 0.1 mg/kg
[5]
  ED50: 1.1 mg/kg

## CCNCc1nnc(C)n1-c1ccc(Cl)cc1C(=O)c1ccccc1
[1]; [10]
  ED50: 0.2 mg/kg
[6]
  ED50: 45 mg/kg
[7]
  ED50: 0.6 mg/kg
[2]; [10]
  ED50: 2.5 mg/kg
[3]; [10]
  ED50: 1 mg/kg
[8]
  ED50: 0.6 mg/kg
[9]
  ED50: 45 mg/kg
[4]; [10]
  ED50: 0.2 mg/kg
[5]
  ED50: 0.5 mg/kg

## CN(C)Cc1nnc(C2CC2)n1-c1ccc(Cl)cc1C(=O)c1ccccc1Cl
[1]; [10]
  ED50: 0.6 mg/kg
[6]
  ED50: 5 mg/kg
[7]
  ED50: 2.2 mg/kg
[2]; [10]
  ED50: 7.1 mg/kg
[3]; [10]
  ED50: 1.1 mg/kg
[8]
  ED50: 0.4 mg/kg
[9]
  ED50: 79 mg/kg
[4]; [10]
  ED50: 0.6 mg/kg
[5]
  ED50: 1 mg/kg

## CN(C)Cc1nnc(-c2ccco2)n1-c1ccc(Cl)cc1C(=O)c1ccccc1
[1]; [10]
  ED50: 16 mg/kg
[6]
  ED50: 45 mg/kg
[7]
  ED50: 25 mg/kg
[2]; [10]
  ED50: 71 mg/kg
[3]; [10]
  ED50: 28 mg/kg
[8]
  ED50: 8 mg/kg
[9]
  ED50: > 100 mg/kg
[4]; [10]
  ED50: 16 mg/kg
[5]
  ED50: 23 mg/kg

## Cc1nnc(CN)n1-c1ccc(Cl)cc1C(O)c1ccccc1 (stereo not given)
[1]; [10]
  ED50: 1.6 mg/kg
[6]
  ED50: 28 mg/kg
[7]
  ED50: 3.1 mg/kg
[2]; [10]
  ED50: 9 mg/kg
[3]; [10]
  ED50: 2.8 mg/kg
[8]
  ED50: 1.2 mg/kg
[9]
  ED50: 71 mg/kg
[4]; [10]
  ED50: 1.6 mg/kg
[5]
  ED50: 4 mg/kg

## CN(C)Cc1nccn1-c1ccc(Cl)cc1C(=O)c1ccccc1Cl
[1]; [10]
  ED50: 1 mg/kg
[6]
  ED50: > 50 mg/kg
[7]
  ED50: 2.5 mg/kg
[2]; [10]
  ED50: 11 mg/kg
[3]; [10]
  ED50: 2.2 mg/kg
[8]
  ED50: 1.1 mg/kg
[4]; [10]
  ED50: 1.2 mg/kg
[5]
  ED50: 1.8 mg/kg

## Cc1nc(CN(C)C)n(-c2ccc(Cl)cc2C(=O)c2ccccc2Cl)c1CO
[1]; [10]
  ED50: 1 mg/kg
[6]
  ED50: > 25 mg/kg
[7]
  ED50: 18 mg/kg
[2]; [10]
  ED50: 18 mg/kg
[3]; [10]
  ED50: 3.5 mg/kg
[8]
  ED50: 2 mg/kg
[9]
  ED50: 100 mg/kg
[4]; [10]
  ED50: 1 mg/kg
[5]
  ED50: 1.8 mg/kg

## CN(C)Cc1nn(CO)c(=O)n1-c1ccc(Cl)cc1C(=O)c1ccccc1Cl
[1]; [10]
  ED50: 0.13 mg/kg
[6]
  ED50: 12.5 mg/kg
[7]
  ED50: 2 mg/kg
[2]; [10]
  ED50: 6.3 mg/kg
[3]; [10]
  ED50: 1 mg/kg
[8]
  ED50: 0.23 mg/kg
[9]
  ED50: > 100 mg/kg
[4]; [10]
  ED50: 0.13 mg/kg
[5]
  ED50: 0.32 mg/kg

## CNCc1nn(C)c(=O)n1-c1ccc(Cl)cc1C(=O)c1ccccc1.Cl
[1]; [10]
  ED50: 0.45 mg/kg
[2]; [10]
  ED50: 12.5 mg/kg
[3]; [10]
  ED50: 4 mg/kg
[4]; [10]
  ED50: 0.56 mg/kg
[5]
  ED50: 5.6 mg/kg

## CN(C)CCn1nc(CN(C)C)n(-c2ccc(Cl)cc2C(=O)c2ccccc2)c1=O
[1]; [10]
  ED50: 6.3 mg/kg
[6]
  ED50: > 100 mg/kg
[7]
  ED50: 80 mg/kg
[2]; [10]
  ED50: 100 mg/kg
[3]; [10]
  ED50: 28 mg/kg
[8]
  ED50: 9 mg/kg
[9]
  ED50: > 100 mg/kg
[4]; [10]
  ED50: 6.3 mg/kg
[5]
  ED50: 18 mg/kg

## NCC(=O)Nc1ccc(Cl)cc1C(=O)c1ccccc1
[1]; [10]
  ED50: 0.25 mg/kg
[6]
  ED50: 22 mg/kg
[7]
  ED50: 2.5 mg/kg
[2]; [10]
  ED50: 32 mg/kg
[3]; [10]
  ED50: 5.6 mg/kg
[8]
  ED50: 1.6 mg/kg
[9]
  ED50: 29 mg/kg
[4]; [10]
  ED50: 0.25 mg/kg

## Cc1nnc(CN2CCCC2)n1-c1ccc(Cl)cc1C(O)c1ccccc1 (stereo in doubt; 20)
[1]
  ED50: 8 mg/kg
[2]
  ED50: >25 mg/kg
[3]
  ED50: 16 mg/kg
[4]
  ED50: 8 mg/kg

## Cc1nnc(CN2CCCC2)n1-c1ccc(Cl)cc1C(O)c1ccccc1 (stereo in doubt; 21)
[1]
  ED50: 32 mg/kg
[2]
  ED50: >200 mg/kg
[3]
  ED50: 5 mg/kg
[4]
  ED50: 32 mg/kg
[5]
  ED50: 14 mg/kg

## Cc1nnc2n1-c1ccc(Cl)cc1C(c1ccccc1)=NC2 [ALPRAZOLAM]
[1]; [10]
  ED50: 0.02 mg/kg
[6]
  ED50: 0.3 mg/kg
[7]
  ED50: 0.16 mg/kg
[2]; [10]
  ED50: 0.6 mg/kg
[3]; [10]
  ED50: 0.056 mg/kg
[8]
  ED50: 0.16 mg/kg
[9]
  ED50: 25.5 mg/kg
[4]; [10]
  ED50: 0.02 mg/kg
[5]
  ED50: 0.2 mg/kg

## CN1C(=O)CN=C(c2ccccc2)c2cc(Cl)ccc21 [DIAZEPAM]
[1]; [10]
  ED50: 0.11 mg/kg
[6]
  ED50: 3.6 mg/kg
[7]
  ED50: 1 mg/kg
[2]; [10]
  ED50: 5 mg/kg
[3]; [10]
  ED50: 0.31 mg/kg
[8]
  ED50: 0.2 mg/kg
[9]
  ED50: 20 mg/kg
[4]; [10]
  ED50: 0.11 mg/kg
[5]
  ED50: 0.8 mg/kg

## Cc1nnc2n1-c1ccc(Cl)cc1C(c1ccccc1Cl)=NC2 [TRIAZOLAM]
[1]; [10]
  ED50: 0.013 mg/kg
[6]
  ED50: 0.23 mg/kg
[7]
  ED50: 0.63 mg/kg
[2]; [10]
  ED50: 0.6 mg/kg
[3]; [10]
  ED50: 0.028 mg/kg
[8]
  ED50: 0.028 mg/kg
[9]
  ED50: 32 mg/kg
[4]; [10]
  ED50: 0.014 mg/kg
[5]
  ED50: 0.03 mg/kg

From ChEMBL document CHEMBL3272213, “Synthesis and pharmacology of novel anxiolytic agents derived from 2-[(dialkylamino)methyl-4H-triazol-4-yl] benzophenones and related heterocyclic benzophenones” (1976)
